The values that follow come from patent US7244727B2, “Fused bicyclic nitrogen-containing heterocycles” (Japan Tobacco Inc., priority 2002, dated 2007).

SMILES strings stand for the structures.

This test addresses T1, human DGAT1 (Homo sapiens, UniProt O75907).
T1 construct: made in house; host or cells: insect cells (sf9, sf21 or High Five) infected with baculovirus; total cell membranes
T1 sequence (O75907 1-488): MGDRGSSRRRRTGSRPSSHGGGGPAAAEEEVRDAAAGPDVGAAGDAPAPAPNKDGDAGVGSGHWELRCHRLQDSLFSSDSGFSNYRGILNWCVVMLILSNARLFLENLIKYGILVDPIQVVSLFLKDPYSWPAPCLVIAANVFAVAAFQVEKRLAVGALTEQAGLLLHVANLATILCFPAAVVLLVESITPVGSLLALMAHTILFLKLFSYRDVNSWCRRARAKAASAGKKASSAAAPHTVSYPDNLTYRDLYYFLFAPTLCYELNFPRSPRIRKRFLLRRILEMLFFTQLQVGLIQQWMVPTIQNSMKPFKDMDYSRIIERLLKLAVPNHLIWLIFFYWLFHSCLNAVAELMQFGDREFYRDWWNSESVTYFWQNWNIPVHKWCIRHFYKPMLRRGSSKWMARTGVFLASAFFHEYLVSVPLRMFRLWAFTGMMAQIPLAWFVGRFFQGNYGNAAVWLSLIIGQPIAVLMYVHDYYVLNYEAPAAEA
Briefly: DGAT Scintillation Proximity Assay (SPA) with membranes of insect cells expressing human flagtag DGAT1. Type of test: biochemical. Particulars: read-out: hDGAT1 IC50. As for the experimental part: In such an assay human DGAT1 is cloned from a human liver cDNA library. PCR is used to add a restriction site and flag epitope at the most 5′ end and a restriction site at the 3′ end of the sequence. Thereafter, human flagtag (FT) DGAT1 baculovirus may be generated using a Bac-to-Bac Baculovirus Expression System® (Invitrogen). Insect cells (e.g., sf9, sf2 1, or High Five) are infected for 24 to 72 h and collected by centrifugation. Cell pellets are resuspended in homogenization buffer and lysed using a homogenization device, such as a Microfluidizer. Total cell membranes are collected by ultracentrifugation at 45,000 rpm for 1 h.
A small aliquot (0.2 μg/well) of membrane is incubated with 10 μM compound or mercuric chloride (as positive control for inhibition) in the presence of enzyme substrate, dioleoyl glycerol (200 μM) in 384 well plates, final volume 50 gL per well. […] The reaction is stopped by adding Wheat Germ Agglutinin (WGA) SPA beads (0.2 mg) in mercuric chloride. Cell membranes are allowed to couple to the beads overnight. The signal can be measured using, for example, a Chemiluminescence Image Plate Reader (CLIPR) or TopCount device.
For the compound `Cc1nc(N)c2c(n1)OC(C)(C)C(c1ccc(C3CCC(C(C)C(=O)O)CC3)cc1)=N2` (single isomer, unassigned) [Example 9], the IC50 – broadly, the midpoint of a concentration-inhibition curve – lay within 10 to 100 nM.

On to `Nc1ncnc2c1N=C(c1ccccc1Br)CO2` [Example 1-5], for which the IC50 is over 100 nM.

Regarding `Nc1ncnc2c1N=C(c1ccc(Br)s1)CO2` [Example 1-24], the IC50 is over 100 nM.

In the case of `CN(C)C(=O)C=C1CCC(c2ccc(C3=Nc4c(N)ncnc4OC3(C)C)cc2)CC1` (stereo not drawn) [Example 2-44], the IC50 was in the range of 10 to 100 nM.

For `CC1(C)Oc2ncnc(N)c2N=C1c1ccc(C2CCC(=CC(N)=O)CC2)cc1` (stereo not drawn) [Example 2-46], the half-maximal inhibitory concentration (IC50) was in the range of 10 to 100 nM.

As to `CC1(C)Oc2ncnc(N)c2N=C1c1ccc(C2CCC(=CC(=O)NCCO)CC2)cc1` (stereo not drawn) [Example 2-48], the IC50 lay within 10 to 100 nM.

Take `Cc1nc(N)c2c(n1)OC(C)(C)C(c1ccc([C@H]3CC[C@H](CNC(=O)COC(=O)CCC(=O)O)CC3)cc1)=N2` [Example 2-49]: the IC50 is 10 to 100 nM.

On to `CN1CCN(C(=O)C=C2CCC(c3ccc(C4=Nc5c(N)ncnc5OC4(C)C)cc3)CC2)CC1` (stereo not drawn) [Example 2-50], for which the IC50 was 10 to 100 nM.

`CN(C)CCNC(=O)C=C1CCC(c2ccc(C3=Nc4c(N)ncnc4OC3(C)C)cc2)CC1` (stereo not drawn) [Example 2-51]: the IC50 is 10 to 100 nM.

Take `CC1(C)Oc2ncnc(N)c2N=C1c1ccc([C@H]2CC[C@H](CN)CC2)cc1` [Example 2-63]: the IC50 lay in the range of 10 to 100 nM.

`CC1(C)Oc2ncnc(N)c2NC1c1ccc([C@H]2CC[C@H](CCO)CC2)cc1` (stereo partly drawn) [Example 2-81]: the IC50 is over 100 nM.

On to `CC1(C)Oc2ncnc(N)c2N=C1c1ccc(C2CCC(N3CCCC3)CC2)cc1` (stereo not drawn) [Example 2-89], for which the IC50 is over 100 nM.

For `CC1(C)Oc2ncnc(N)c2N=C1c1ccc(C2CCC(N3CCCCC3)CC2)cc1` (stereo not drawn) [Example 2-90], the IC50 is over 100 nM.

On to `CC1(C)Oc2ncnc(N)c2N=C1c1ccc([C@H]2CC[C@H](CNC(=O)CO)CC2)cc1` [Example 2-91], for which the IC50 was in the range of 10 to 100 nM.

For `COc1ccc2[nH]c(C[C@H]3CC[C@H](c4ccc(C5=Nc6c(N)ncnc6OC5(C)C)cc4)CC3)nc2c1` [Example 2-121], the IC50 lay within 10 to 100 nM.

On to `CC(C)(C)OC(=O)NS(=O)(=O)NC[C@H]1CC[C@H](c2ccc(C3=Nc4c(N)ncnc4OC3(C)C)cc2)CC1` [Example 2-125], for which the IC50 was under 10 nM.

For `Cc1nc(N)c2c(n1)OC(C)(C)C(c1ccc([C@H]3CC[C@H](CC4=NS(=O)ON4)CC3)cc1)=N2` (stereo partly drawn) [Example 2-153], the IC50 was under 10 nM.

As to `Cc1nc(N)c2c(n1)OC(C)(C)C(c1ccc([C@H]3CC[C@H](Cc4cc(O)[nH]n4)CC3)cc1)=N2` [Example 2-155], the IC50 was 10 to 100 nM.

Take `Cc1nc(N)c2c(n1)OC(C)(C)C(c1ccc([C@H]3CC[C@H](Cn4oc(=O)[nH]c4=O)CC3)cc1)=N2` [Example 2-157]: the IC50 was under 10 nM.

For the compound `Cc1nc(N)c2c(n1)OC(C)(C)C(c1ccc([C@H]3CC[C@H](CN4CC(C)(C)C(O)C4=O)CC3)cc1)=N2` (stereo partly drawn) [Example 2-167], the IC50 was in the range of 10 to 100 nM.

On to `Cc1nc(N)c2c(n1)OC(C)(C)C(c1ccc([C@H]3CC[C@H](Cc4nc(=O)on4C)CC3)cc1)=N2` [Example 2-168], for which the IC50 is 10 to 100 nM.

With `Cc1nc(N)c2c(n1)OC(C)(C)C(c1ccc([C@H]3CC[C@H](CN4CCNC4=O)CC3)cc1)=N2` [Example 2-171], the IC50 is over 100 nM.

With `CN1CCN(C(=O)CC[C@H]2CC[C@H](c3ccc(C4=Nc5c(N)ncnc5OC4(C)C)cc3)CC2)CC1` [Example 2-181], the IC50 lay in the range of 10 to 100 nM.

Turning to `CC1(C)Oc2ncnc(N)c2N=C1c1ccc([C@H]2CC[C@H](CO)CC2)cc1` [Example 2-216], the IC50 was 10 to 100 nM.

As for `CC1(C)Oc2ncnc(N)c2NC1c1ccc([C@H]2CC[C@H](CO)CC2)cc1` (stereo partly drawn) [Example 2-223], the IC50 is over 100 nM.

`CC1(C)Oc2ncnc(N)c2N=C1c1ccc([C@H]2CC[C@H](CN3CCC(O)CC3)CC2)cc1` [Example 2-225]: the IC50 was over 100 nM.

Consider `CC1(C)Oc2ncnc(N)c2N=C1c1ccc([C@H]2CC[C@H](CN3CCC(O)(c4ccccc4)CC3)CC2)cc1` [Example 2-226], for which the IC50 was over 100 nM.

As for `CN1CCN(C[C@H]2CC[C@H](c3ccc(C4=Nc5c(N)ncnc5OC4(C)C)cc3)CC2)CC1` [Example 2-230], the IC50 was 10 to 100 nM.

Take `CC(C)(C)OC(=O)N1CCN(C[C@H]2CC[C@H](c3ccc(C4=Nc5c(N)ncnc5OC4(C)C)cc3)CC2)CC1` [Example 2-242]: the IC50 is over 100 nM.

With `CC1(C)Oc2ncnc(N)c2N=C1c1ccc(C2CCNCC2)cc1` [Example 3-2], the half-maximal inhibitory concentration (IC50) is over 100 nM.

On to `CC1(C)Oc2ncnc(N)c2N=C1c1ccc(N2CCC(Cc3ccccc3)CC2)cc1` [Example 4-2], for which the half-maximal inhibitory concentration (IC50) was over 100 nM.

Take `Cc1nc(N)c2c(n1)OC(C)(C)C(c1ccc([C@H]3CC[C@H](CC(=O)O)CC3)cc1)C2` (stereo partly drawn) [Example 7-2]: the IC50 lay within 10 to 100 nM.

In the case of `Cc1ccc(C2=Cc3c(N)ncnc3OC2(C)C)cc1` [Example 7-3], the IC50 is over 100 nM.

For `CC1(C)Oc2ncnc(N)c2N=C1c1ccc2c(c1)COC21CCC(CC(=O)O)CC1` (stereo not drawn) [Example 8-2], the IC50 fell in the range of 10 to 100 nM.

Take `Cc1nc(N)c2c(n1)OC(C)(C)C(c1ccc3c(c1)CCC31CCC([C@@H](C)C(=O)O)CC1)=N2` (stereo partly drawn) [Example 8-4]: the half-inhibitory concentration (IC50) was 10 to 100 nM.

Regarding `Cc1nc(N)c2c(n1)OC(C)(C)C(c1ccc3c(c1)CC[C@]31CC[C@@H](CC(=O)O)CC1)=N2` [Example 8-6], the IC50 is 10 to 100 nM.

For `CC1(C)Oc2ncnc(N)c2N=C1c1ccc2c(c1)CCC[C@]21CC[C@@H](CC(=O)O)CC1` [Example 8], the half-inhibitory concentration (IC50) was under 10 nM.

Turning to `Cc1nc(N)c2c(n1)OC(C)(C)C(c1ccc(C3CCC([C@H](C)C(=O)O)CC3)cc1)=N2` (stereo partly drawn) [Example 9-2], the IC50 fell in the range of 10 to 100 nM.

In the case of `CC1(C)Oc2ncnc(N)c2N=C1c1ccc2c(c1)CC[C@@H]1C/C(=C\C(=O)O)CC[C@H]21` [Example 10-2], the IC50 lay within 10 to 100 nM.

In the case of `CC1(C)Oc2ncnc(N)c2N=C1c1ccc(C2CCC(C(C)(C)C(=O)O)CC2)cc1` (stereo not drawn) [Example 10-3], the IC50 is under 10 nM.

With `CC1(C)Oc2ncnc(N)c2N=C1c1ccc(C2CCC3(CC2)CC3C(=O)O)cc1` (stereo not drawn) [Example 10-4], the IC50 was in the range of 10 to 100 nM.

On to `CC1(C)Oc2ncnc(N)c2N=C1c1ccc(C2CCC(C3(C(=O)O)CC3)CC2)cc1` (stereo not drawn) [Example 10-5], for which the IC50 lay within 10 to 100 nM.

As to `CC1(C)Oc2ncnc(N)c2N=C1c1ccc(C2CCC(C(O)C(=O)O)CC2)cc1` (stereo not drawn) [Example 10-6], the IC50 was in the range of 10 to 100 nM.

In the case of `CC1(C)Oc2ncnc(N)c2N=C1c1ccc(C2CCC(c3cc(O)[nH]n3)CC2)cc1` (stereo not drawn) [Example 10-7], the IC50 was in the range of 10 to 100 nM.

For the compound `CC1(C)Oc2ncnc(N)c2N=C1c1ccc(C2CCC(c3cc(O)no3)CC2)cc1` (stereo not drawn) [Example 10-8], the 50% inhibitory concentration (IC50) lay within 10 to 100 nM.

For `CC1(C)Oc2ncnc(N)c2N=C1c1ccc(C2CCC(c3cc(O)on3)CC2)cc1` (stereo not drawn) [Example 10-9], the IC50 lay in the range of 10 to 100 nM.

Take `CC1(C)Oc2ncnc(N)c2N=C1c1ccc2c(c1)CCC21CCC(CC(=O)O)CC1` (stereo not drawn) [Example 10-10]: the IC50 is under 10 nM.

`CC1(C)Oc2ncnc(N)c2N=C1c1ccc2c(c1)C(C)(C)CCC21CCC(CC(=O)O)CC1` (stereo not drawn) [Example 10-11]: the IC50 was in the range of 10 to 100 nM.

Regarding `CC1(C)Oc2ncnc(N)c2N=C1c1ccc2c(c1)CCCC21CCC(C2(C(=O)O)CC2)CC1` (stereo not drawn) [Example 10-12], the half-inhibitory concentration (IC50) was in the range of 10 to 100 nM.

Regarding `CC1(C)Oc2ncnc(N)c2N=C1c1ccc2c(c1)CCC21CCC(C(C)(C)C(=O)O)CC1` (stereo not drawn) [Example 10-13], the half-inhibitory concentration (IC50) was under 10 nM.

Take `Cc1nc(N)c2c(n1)OC(C)(C)C(c1ccc(C3CCC(C(C)(C)C(=O)O)CC3)cc1)=N2` (stereo not drawn) [Example 10-14]: the IC50 was 10 to 100 nM.

Consider `CC(C(=O)O)C1CCC(c2ccc(C3=Nc4c(N)nc(C(F)(F)F)nc4OC3(C)C)cc2)CC1` (stereo not drawn) [Example 10-15], for which the IC50 is under 10 nM.

Consider `Cc1nc(N)c2c(n1)OC(C)(C)C(c1ccc3c(c1)CCC31CCC(C(C)(C)C(=O)O)CC1)=N2` (stereo not drawn) [Example 10-16], for which the IC50 fell in the range of 10 to 100 nM.

For the compound `CC(C(=O)O)C1CCC2(CCc3cc(C4=Nc5c(N)nc(C(F)(F)F)nc5OC4(C)C)ccc32)CC1` (stereo not drawn) [Example 10-17], the IC50 is under 10 nM.

With `CCc1nc(N)c2c(n1)OC(C)(C)C(c1ccc(C3CCC(CC(=O)O)CC3)cc1)=N2` (stereo not drawn) [Example 10-18], the half-maximal inhibitory concentration (IC50) was 10 to 100 nM.

Regarding `CC1(C)Oc2nc(C(F)(F)F)nc(N)c2N=C1c1ccc(C2CCC(C3(C(=O)O)CC3)CC2)cc1` (stereo not drawn) [Example 10-19], the IC50 lay in the range of 10 to 100 nM.

Take `CC1(C)Oc2nc(C(F)(F)F)nc(N)c2N=C1c1ccc(C2CCC(C(C)(C)C(=O)O)CC2)cc1` (stereo not drawn) [Example 10-20]: the IC50 was in the range of 10 to 100 nM.
